US9469652B2, “ERK inhibitors” (Eli Lilly and Company, priority 2014, dated 2016)

What was measured:
[1] = tested on: human colorectal cancer cells HCT116; assay: In vivo combination study, HCT116 KRAS mutant colorectal cancer xenograft model; conditions: oral, 28 days, single agent
Description: More specifically, the compound of Example 1 is tested in combination with either the pan-RAF inhibitor compound or the CDK4/6 inhibitor compound in HCT116, a KRAS mutant colorectal cancer xenograft model. Also, the compound of Example 1 is tested in combination with either the CDK4/6 inhibitor compound or DC101 in NCI-H441, A549, and NCI-H2122, KRAS mutant non-small cell lung cancer (NSCLC) xenograft models.
The HCT116 combination efficacy study is done in athymic nude rats. Expand human colorectal cancer cells HCT116 (ATCC, #CCL-247) in culture, harvest and inject 5×10e^6 cells in 200 μL of 1:1 HBSS+matrigel solution subcutaneously on to the rear right flank of female NIH nude rats (120-145 gm, Taconic Farms). Measure tumor growth and body weight twice per week beginning the seventh day after the implantation. When average tumor sizes reach 200-300 mm^3, randomize animals and group into groups of five to seven animals. Prepare test compound in an appropriate vehicle (see below) and administer by oral gavage for 21 to 28 days. Tumor response is determined by tumor volume measurement performed twice a week during the course of treatment. Vehicle used in this study is 1% HEC (hydroxy ethyl cellulose)/0.25% Tween® 80/0.05% Antifoam. The compound of Example 1 and the pan-RAF inhibitor compound are formulated in 1% HEC/0.25% Tween® 80/0.05% Antifoam. The CDK4/6 inhibitor compound is formulated in 1% HEC in 25 mM Sodium phosphate buffer, pH 2.

[2] = tested on: human colorectal cancer cells COLO-205; assay: Xenograft tumor model COLO-205; format: in vivo, female athymic nude mice; conditions: oral gavage; for Delta T/C % or Regr %: negative = regression
Description: The purpose of this assay is to measure reduction in tumor volume in response to test compound administration. Expand human colorectal cancer cells HCT116 (ATCC, # CCL-247) in culture, harvest and inject 5×10e^6 cells in 200 μL of 1:1 HBSS+matrigel solution subcutaneously on to the rear right flank of female athymic nude mice (22-25 g, Harlan Laboratories). Expand human pancreatic cancer cells MIA PACA-2 (ATCC, # CRL-1420) or human non-small cell lung cancer cells CALU-6 (ATCC, #HTB-56) or human colorectal cancer cells COLO-205 (ATCC, #CCL-222) in culture, harvest and inject 5×10e^6 cells in 200 μL of 1:1 HBSS+matrigel solution subcutaneously on to the rear right flank of female athymic nude mice (22-25 g, Harlan Laboratories). Measure tumor growth and body weight twice per week beginning the seventh day after the implantation. When tumor sizes reach 200-400 mm^3, randomize animals and group into groups of eight to ten animals. Prepare test compound in an appropriate vehicle (vehicle: 1% HEC/0.25% Tween 80/0.05% Antifoam) and administer by oral gavage for 14 to 21 days. Tumor response is determined by tumor volume measurement performed twice a week during the course of treatment. Body weight is taken as a general measure of toxicity.
A compound within the scope of invention is tested in this assay run substantially as above.

ERK2 = target: T1, ERK2 (Homo sapiens, UniProt P28482); assay: ERK2 Kinase Assay (TR-FRET); format: biochemical; conditions: Abs_IC50, ATP 10 μM, GFP-ATF2 substrate; ±0.24, n=7
T1 construct: purchased Invitrogen PV3595B
T1 sequence (P28482 whole entry): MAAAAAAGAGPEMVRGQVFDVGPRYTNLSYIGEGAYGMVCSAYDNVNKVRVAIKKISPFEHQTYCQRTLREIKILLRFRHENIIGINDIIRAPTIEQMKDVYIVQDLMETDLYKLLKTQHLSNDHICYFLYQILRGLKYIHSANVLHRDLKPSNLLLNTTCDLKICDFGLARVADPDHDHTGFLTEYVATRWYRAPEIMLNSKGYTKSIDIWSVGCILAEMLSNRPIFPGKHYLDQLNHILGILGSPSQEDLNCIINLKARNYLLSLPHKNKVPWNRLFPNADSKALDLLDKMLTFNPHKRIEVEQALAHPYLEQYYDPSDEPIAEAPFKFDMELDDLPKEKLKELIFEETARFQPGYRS
Description: The purpose of this assay is to measure the ability of compounds to inhibit ERK2 kinase activity. Perform the ERK2 kinase assay in vitro using a TR-FRET assay. Start all reactions (12.5 μL) by adding 5 μL of ERK2 enzyme (Invitrogen, #PV3595B, final conc 50 ng/mL) plus substrate GFP-ATF2 (Invitrogen, #PV4445, final conc 0.2 μM), 5 μL of ATP solution (Invitrogen, #PV3227, final conc 10 μM) prepared in kinase buffer (50 mM Hepes pH 7.4, 5 mM MgCl2, 0.1 mM EGTA, 0.01% Triton X-100, 1 mM DTT) and 2.5 μL of testing compounds in DMSO solution (final 4%, v/v) in a 384-well PROXIPLATE™ (Perkin Elmer, #GRN6260). Incubate reactions at room temperature for 60 minutes. Stop reactions by addition of 12.5 μL of stop buffer (10 mM EDTA, 2 nM Tb-anti-pATF2 (pThr71) antibody, Invitrogen, #PV4448) in TR-FRET dilution buffer (Invitrogen, #PV3574). Incubate the plates at room temperature for an additional 60 minutes and read ON ENVISION® (PerkinElmer) plate reader at the excitation wavelength of 340 nm Calculate a TR-FRET ratio by dividing the GFP acceptor emission signal (at 520 nm) by the Tb donor emission signal (at 495 nm). Calculate percent inhibition using compound wells relative to on-plate Max (DMSO control) and Min (No enzyme added) control wells TR-FRET ratio data {% inhibition=100−[(test compound−median Min)/(median Max−median Min)×100]}. […]

Cn1nccc1Nc1nccc(-c2cc3c(s2)C(C)(C)N(CCN2CCOCC2)C3=O)n1 [Example 1, 6,6-Dimethyl-2-{2-[(1-methyl-1H-pyrazol-5-yl)amino]pyrimidin-4-yl}-5-[2-(morpholin-4-yl)ethyl]-5,6-dihydro-4H-thieno[2,3-c]pyrrol-4-one]
Delta T/C % ([1]; 10 mg/kg QD): 48%
TGI % ([1]; 10 mg/kg QD): 52%
Delta T/C % ([1]; 20 mg/kg QD): 36%
TGI % ([1]; 20 mg/kg QD): 64%
TGI % ([2]; 12.5 mg/kg QD): 119%
Delta T/C % or Regr % ([2]; 12.5 mg/kg QD): −19%
TGI % ([2]; 25 mg/kg QD): 132%
Delta T/C % or Regr % ([2]; 25 mg/kg QD): −32%
TGI % ([2]; 100 mg/kg QD): 176%
Delta T/C % or Regr % ([2]; 100 mg/kg QD): −76%
IC50 (ERK2): 5.24 nM
